According to patent US10519153B2, “Fused imidazo-piperidine JAK inhibitors” (THERAVANCE BIOPHARMA R&D IP, LLC, priority 2017, dated 2019):

Test system: IL-6 stimulated pSTAT3 in CD3+ T cells
Assay: Inhibition of IL-6 stimulated pSTAT3 in CD3+ T cells
Type: cell-based, human
From the text: Assay 10: Cellular JAK Potency Assay: Inhibition of IL-6 Stimulated pSTAT3 in CD3+ T Cells
A protocol analogous to that of Assay 9 was used to determine the potency of the test compound for inhibition of interleuken-6 (IL-6) stimulated STAT3 phosphorylation. An Alexa Fluor 647 conjugated anti-pSTAT3 antibody (pY705, Clone 4/P, BD Biosciences) was used to detect STAT3 phosphorylation.

SMILES	inhibition of IL-6 signaling (in words)
CCc1cc(O)c(F)cc1-c1ccc2c(-c3nc4c([nH]3)CN(C(C)C)[C@H](C(=O)N3CC[C@H](N(C)C)C3)C4)n[nH]c2c1 [Example 3]	inhibit IL-6 signaling
CCCN1Cc2[nH]c(-c3n[nH]c4cc(-c5cc(F)c(O)cc5CC)ccc34)nc2C[C@H]1C(=O)N1C[C@@H]2C[C@H]1CN2C [Example 1, ((S)-2-(6-(2-ethyl-5-fluoro-4-hydroxyphenyl)-1H-indazol-3-yl)-5-propyl-4,5,6,7-tetrahydro-3H-imidazo[4,5-c]pyridin-6-yl)((1S,4S)-5-methyl-2,5-diazabicyclo-[2.2.1]heptan-2-yl)methanone]	inhibit IL-6 signaling
